In ChEMBL document CHEMBL1201862, “PubChem BioAssay data set” (2004):
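Method: 48-hour compound exposure of cells in 96-well plates, five concentrations, linear interpolation of endpoints. GI50 marks 50% less growth.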 The source made the active and inactive calls. Cut-off read from the data, not from the text of the source: active = GI50 up to about 1.1 µM and inactive = higher.

How the values were obtained:
Assay in all cases: NCI-60 cell line screen, 48 h
[1] = test system: UACC-62
[2] = test system: SK-MEL-5
[3] = test system: SK-MEL-28
[4] = test system: HCC 2998
[5] = test system: NCI-H522
[6] = test system: RPMI-8226
[7] = test system: HCT-116
[8] = test system: NCI-H226
[9] = test system: U-251
[10] = test system: OVCAR-3
[11] = test system: SNB-19
[12] = test system: A498
[13] = test system: KM-20L2
[14] = test system: K562
[15] = test system: Malme-3M
[16] = test system: CCRF-CEM
[17] = test system: OVCAR-4
[18] = test system: NCI-H23
[19] = test system: MDA-MB-435
[20] = test system: NCI/ADR-RES

Row | SMILES | GI50 [1] | GI50 [2] | GI50 [3] | GI50 [4] | GI50 [5] | GI50 [6] | GI50 [7] | GI50 [8] | GI50 [9] | GI50 [10] | GI50 [11] | GI50 [12] | GI50 [13] | GI50 [14] | GI50 [15] | GI50 [16] | GI50 [17] | GI50 [18] | GI50 [19] | GI50 [20]
1 | CN(C)c1ccc(N=O)c(O)c1.CN(C)c1ccc(N=O)c(O)c1.[SiH4] | 8.49 µM (inactive) | 11.1 µM (inactive) | 13.2 µM (inactive) | 15.4 µM (inactive) | 1.53 µM (inactive) | 31.6 µM (inactive) | 6.5 µM (inactive) | 16.4 µM (inactive) | 8.09 µM (inactive) | 3.71 µM (inactive) | 17.3 µM (inactive) | 21.3 µM (inactive) | 4.65 µM (inactive) | 16.3 µM (inactive) | 14.1 µM (inactive) | 4.35 µM (inactive) | 12.7 µM (inactive) | 10.1 µM (inactive) | – | –
2 | CCSc1nc(-c2ccc(OC)cc2)c(C#N)c(=O)n1C1OCC(OC(C)=O)C(OC(C)=O)C1OC(C)=O (stereo not given) | > 100 µM (inactive) | 93.3 µM (inactive) | > 100 µM (inactive) | > 100 µM (inactive) | 92 µM (inactive) | 78.5 µM (inactive) | > 100 µM (inactive) | > 100 µM (inactive) | > 100 µM (inactive) | – | > 100 µM (inactive) | > 100 µM (inactive) | > 100 µM (inactive) | > 100 µM (inactive) | > 100 µM (inactive) | – | > 100 µM (inactive) | 94.6 µM (inactive) | – | –
3 | COc1cc(/C=C2/C(=O)N(C(=O)OCc3ccccc3)C(Cc3cc(OC)c(OC)c(C)c3OC)C(=O)N2Cc2ccccc2)c(OC)c(C)c1OC (stereo not given) | > 100 µM (inactive) | 19.4 µM (inactive) | > 100 µM (inactive) | > 100 µM (inactive) | 11 µM (inactive) | 20.9 µM (inactive) | 29.3 µM (inactive) | 2 µM (inactive) | 33.1 µM (inactive) | 48.8 µM (inactive) | > 100 µM (inactive) | 88.7 µM (inactive) | > 100 µM (inactive) | 39 µM (inactive) | 76.4 µM (inactive) | – | > 100 µM (inactive) | > 100 µM (inactive) | – | –
4 | O=Cc1cc2c(s1)C(=O)c1sccc1C2=O | 0.248 µM (active) | 0.129 µM (active) | 0.176 µM (active) | 1.56 µM (inactive) | 0.785 µM (active) | 0.309 µM (active) | 0.256 µM (active) | 1.79 µM (inactive) | 0.314 µM (active) | 0.222 µM (active) | 0.366 µM (active) | 1.37 µM (inactive) | 2.1 µM (inactive) | 0.541 µM (active) | 0.368 µM (active) | 0.476 µM (active) | 0.22 µM (active) | 0.191 µM (active) | 0.0187 µM (active) | 0.188 µM (active)
5 | COC1=CC(O)(CC(N)=O)c2ccccc2C1=O (stereo not given) | > 100 µM (inactive) | > 100 µM (inactive) | > 100 µM (inactive) | > 100 µM (inactive) | > 100 µM (inactive) | > 100 µM (inactive) | > 100 µM (inactive) | > 100 µM (inactive) | > 100 µM (inactive) | > 100 µM (inactive) | > 100 µM (inactive) | > 100 µM (inactive) | > 100 µM (inactive) | > 100 µM (inactive) | > 100 µM (inactive) | > 100 µM (inactive) | > 100 µM (inactive) | – | – | –
6 | O=C1CCCCC1CN1CCCC1 (stereo not given) | – | > 100 µM (inactive) | > 100 µM (inactive) | > 100 µM (inactive) | 0.178 µM (active) | 84.3 µM (inactive) | > 100 µM (inactive) | > 100 µM (inactive) | > 100 µM (inactive) | > 100 µM (inactive) | – | > 100 µM (inactive) | > 100 µM (inactive) | > 100 µM (inactive) | > 10 µM (inactive) | 65.6 µM (inactive) | > 100 µM (inactive) | > 100 µM (inactive) | – | –
7 | Nc1ccc(C(=O)NN2C(=O)C(Cl)C2c2ccccc2)cc1 (stereo not given) | > 100 µM (inactive) | > 100 µM (inactive) | > 100 µM (inactive) | > 100 µM (inactive) | > 100 µM (inactive) | > 100 µM (inactive) | > 100 µM (inactive) | > 100 µM (inactive) | > 100 µM (inactive) | > 100 µM (inactive) | > 100 µM (inactive) | > 100 µM (inactive) | > 100 µM (inactive) | > 100 µM (inactive) | > 100 µM (inactive) | > 100 µM (inactive) | > 100 µM (inactive) | > 100 µM (inactive) | – | –
8 | CC(=O)NC(CCCCNC(=O)OCc1ccccc1)C(=O)NCc1ccccc1 (stereo not given) | > 100 µM (inactive) | > 100 µM (inactive) | > 100 µM (inactive) | > 100 µM (inactive) | > 100 µM (inactive) | > 100 µM (inactive) | > 100 µM (inactive) | > 100 µM (inactive) | > 100 µM (inactive) | > 100 µM (inactive) | > 100 µM (inactive) | > 100 µM (inactive) | > 100 µM (inactive) | > 100 µM (inactive) | > 100 µM (inactive) | > 100 µM (inactive) | > 100 µM (inactive) | > 100 µM (inactive) | – | –
